Measurements published in US9901618B2, “Cell-permeable peptide system for treating diseases caused by glutamate excitotoxicity” (priority 2014, dated 2018).
“Also recorded” adds a separate entry of the source.

Tests used:
[1] = tested on: presynaptic release of glutamate; test: Glutamate ([3H]D-Asp) release from superfused cortical synaptosomes; format: cell-based, mouse; conditions: for exocytotic release of [3H] D-Asp vs. control: C57/BL6 cortical synaptosomes, 8 mM KCl 90 s, 100 μM NMDA 10 min Mg2+-free, 50 μM (S)-AMPA 10 min
[2] = tested on: JNK; test: Western blot of JNK phosphorylation in cortical synaptosomes; conditions: for phosphorylation of JNK (p-JNK/JNK) vs. control=100%: wild-type synaptosomes, stimulus alone (100 μM NMDA 10 min Mg2+-free; AMPA 10 min; KCl 90 s)
[3] = tested on: presynaptic NMDA receptors; test: Paired-pulse ratio of evoked EPSCs, patch-clamp in entorhinal cortex slices; format: cell-based, mouse; conditions: D-AP5 50 μM perfusion, C57BL6/J slices
Procedure: The presynaptic NMDA receptors on the glutamatergic terminals are activated by the spontaneously-released glutamate and, by means of a positive feedback mechanism, determine a tonic liberation of glutamate. Electrophysiological recordings were made in order to investigate the functional role of JNK in the release of glutamate. For this reason, a parameter termed paired-pulse facilitation (PPF) was measured from pyramidal neurons of cerebral slices of entorhinal cortex (EC)-obtained from adult mice C57BL6/J incubated with or without the inhibitor of JNK, L-JNKi1 (2 μM for 30 min). Such paired-pulse facilitation (PPF) is a paradigm studied by means of the electrophysiological recording technique in patch-clamp configuration.

[4] = tested on: presynaptic NMDA receptors; test: mEPSC patch-clamp recording in cortex slices (NMDA-dependent presynaptic glutamate release); format: cell-based, mouse; conditions: for effect on D-AP5 block of NMDA presynaptic receptor (mEPSC inter-events): peptide added separately at 10 μM, 30 min before recording
[5] = tested on: Syntaxin 1a; test: Western blot of STX1a (S14) phosphorylation in synaptosomes; format: cell-based, mouse
[6] = synaptosomes treated with D-AP5

Cc1onc(O)c1C[C@H](N)C(=O)O [(S)-AMPA]
exocytotic release of [3H] D-Asp vs. control [1]: 98±11% | phosphorylation of JNK (p-JNK/JNK) vs. control=100% [2]: unable to increase the phosphorylation of JNK

NC(CCCP(=O)(O)O)C(=O)O [D-AP5]
paired-pulse ratio (PPR) at 50 ms interval [3]: irreversibly reduced | mEPSC amplitude [4]: neither the cumulative amplitude nor the mean of the same events were affected; also recorded: never affected | mEPSC inter-event intervals [4]: increase of the cumulative distribution of the inter-event intervals | mEPSC inter-event intervals and amplitude [4]: no significant changes | mEPSC inter-event intervals (IEI) ([4]; D-AP5, C57BL6/J slices, tetrodotoxin, picrotoxin, MK-801 in pipette): reversible increase | change in pSTX1a vs. Ctrl (100%) with D-AP5 [5, 6]: −10±7.2% | change in pJNK vs. Ctrl (100%) with D-AP5 [2, 6]: +10±8.9%

[Cl-].[K+] [KCl]
exocytotic release of [3H] D-Asp vs. control [1]: 158±37% | phosphorylation of JNK (p-JNK/JNK) vs. control=100% [2]: unable to increase the phosphorylation of JNK

CN[C@H](CC(=O)O)C(=O)O [NMDA, N-Methyl D-Aspartate]
exocytotic release of [3H] D-Asp vs. control [1]: 202±21% | NMDA-induced release of [3H] D-Asp with respect to the overflow basal ([1]; JNK2-KO mouse synaptosomes, NMDA 10 min): 28±19% | phosphorylation of STX1a (S14) after NMDA alone ([5]; NMDA 10 min): slight but non-significant decrease | NMDA-induced phosphorylation of JNK ([2]; JNK2-KO mouse synaptosomes): totally eliminated | NMDA-induced increase of pJNK vs. control=100% ([2]; JNK3-KO mouse synaptosomes): +76±10%

GRKKRRQRRRPPIEQSIEQEEGLNRS (SEQ ID NO: 5) (Muridae) [JGRi1]
effect on D-AP5 block of NMDA presynaptic receptor (mEPSC inter-events) [4]: reduced the functionality of the inhibitor D-AP5

GRKKRRQRRRPPMSEYNATQSDYRER (SEQ ID NO: 8) (Muridae) [JGRi2]
effect on D-AP5 block of NMDA presynaptic receptor (mEPSC inter-events) [4]: reduced the functionality of the inhibitor D-AP5
